Experimental data taken from patent US10195156B2, “Compounds and compositions for intracellular delivery of agents” (ModernaTX, Inc., priority 2015, dated 2019).

How the values were obtained:
[1] = Particle size and polydispersity index of nanoparticle compositions (Zetasizer Nano ZS); format: physicochemical; details: for particle size, rank within the named table (in words): comparison amongst compositions
Procedure: A Zetasizer Nano ZS (Malvern Instruments Ltd, Malvern, Worcestershire, UK) can be used to determine the particle size, the polydispersity index (PDI) and the zeta potential of the nanoparticle compositions in 1×PBS in determining particle size and 15 mM PBS in determining zeta potential.

[2] = pKa of nanoparticle compositions; format: physicochemical
[3] = Encapsulation efficiency of RNA (QUANT-IT RIBOGREEN RNA assay); format: physicochemical; details: for encapsulation efficiency, rank within the named table (in words): comparison amongst compositions
Procedure: For nanoparticle compositions including an RNA, a QUANT-IT™ RIBOGREEN® RNA assay (Invitrogen Corporation Carlsbad, Calif.) can be used to evaluate the encapsulation of an RNA by the nanoparticle composition. The samples are diluted to a concentration of approximately 5 μg/mL in a TE buffer solution (10 mM Tris-HCl, 1 mM EDTA, pH 7.5). 50 μL of the diluted samples are transferred to a polystyrene 96 well plate and either 50 μL of TE buffer or 50 μL of a 2% Triton X-100 solution is added to the wells. The plate is incubated at a temperature of 37° C. for 15 minutes. The RIBOGREEN® reagent is diluted 1:100 in TE buffer, and 100 μL of this solution is added to each well. The fluorescence intensity can be measured using a fluorescence plate reader (Wallac Victor 1420 Multilablel Counter; Perkin Elmer, Waltham, Mass.) at an excitation wavelength of, for example, about 480 nm and an emission wavelength of, for example, about 520 nm. The fluorescence values of the reagent blank are subtracted from that of each of the samples and the percentage of free RNA is determined by dividing the fluorescence intensity of the intact sample (without addition of Triton X-100) by the fluorescence value of the disrupted sample (caused by the addition of Triton X-100).

[4] = tested on: luciferase (Luc) mRNA expression; experiment: Expression of Luc induced by sample formulations, whole-body bioluminescence after intravenous administration; format: in vivo; details: mice, i.v., 0.5 mg/kg; for total flux / Luc expression, rank within the named table (in words): each time point
Procedure: In order to monitor how effectively various nanoparticle compositions deliver therapeutic and/or prophylactic agents to targeted cells, different nanoparticle compositions including a particular therapeutic and/or prophylactic agent (for example, a modified or naturally occurring RNA such as an mRNA) are prepared and administered to rodent populations. Mice are intravenously, intramuscularly, intraarterially, or intratumorally administered a single dose including a nanoparticle composition with a formulation such as those provided in Table 1. In some instances, mice may be made to inhale doses. Dose sizes may range from 0.001 mg/kg to 10 mg/kg, where 10 mg/kg describes a dose including 10 mg of a therapeutic and/or prophylactic agent in a nanoparticle composition for each 1 kg of body mass of the mouse. A control composition including PBS may also be employed.
Upon administration of nanoparticle compositions to mice, dose delivery profiles, dose responses, and toxicity of particular formulations and doses thereof can be measured by enzyme-linked immunosorbent assays (ELISA), bioluminescent imaging, or other methods. For nanoparticle compositions including mRNA, time courses of protein expression can also be evaluated. Samples collected from the rodents for evaluation may include blood, sera, and tissue (for example, muscle tissue from the site of an intramuscular injection and internal tissue); sample collection may involve sacrifice of the animals.
The efficacy of the nanoparticle compositions presented in Tables 1, 1a, 17-1, 19-1, 20-1 and 21-1 was evaluated with a bioluminescence study. Formulations were administered intravenously to mice (n=6) at a dosage of 0.5 mg/kg (mpk) and bioluminescence measured at 3, 6, and 24 hour time points. The standard MC3 formulation and a PBS control were evaluated for comparison.

[5] = tested on: modified luciferase expression; experiment: Expression of Luc in different organs (liver, lung, spleen, femur) 6 hours after intravenous administration; format: in vivo; details: i.v., 0.5 mpk; for total flux in organs, rank or organ comparison (in words): each organ or overall
Procedure: The efficacy of the nanoparticle compositions presented in Tables 1, 1a, 17-1, 19-1, 20-1 and 21-1 was further evaluated by measuring the expression of modified luciferase in the liver, lung, spleen, and femur upon administration of a given composition. Formulations were administered intravenously to mice (n=3) at a dosage of 0.5 mpk and bioluminescence measured after 6 hours. The standard MC3 formulation and a PBS control were also tested.

[6] = Table 1, rows without footnote mark (lipid:DOPE:cholesterol:PEG-DMG 40:20:38.5:1.5, Luc mRNA; MC3 standard formulation)
[7] = Table 1, rows without footnote mark
[8] = Table 20-1, rows without footnote mark
[9] = Table 1, * lipid:DSPC:Chol:PEG-DMG 50:10:38.5:1.5

CCCCCCCCCCCCN(CCCCCCCCCCCC)CCN1CCN(CCN(CCCCCCCCCCCC)C(=O)CN(CCCCCCCCCCCC)CCCCCCCCCCCC)CC1 [Compound 1, 2-(Didodecylamino)-N-(2-(4-(2-(didodecylamino)ethyl)piperazin-1-yl)ethyl)-N-dodecylacetamide]
Size (nm) [1, 6]: 203.2 nm
particle size, rank within the named table (in words) [1]: largest particles
pKa [2, 7]: 5.95
EE (%) [3, 7]: 46.2%
encapsulation efficiency, rank within the named table (in words) [3]: lowest

CCCCCCCCCCCCN(CCO)CCCCCCCCCCCC [Compound 17-11, 2-(Didodecylamino)ethan-1-ol]
Total Flux 3 hours ([4]; Table 17-2): 1.86E+06
Total Flux 6 hours ([4]; Table 17-2): 2.82E+06
Total Flux 24 hours ([4]; Table 17-2): 2.70E+05
Total Flux Liver ([5]; Table 17-3, mice, liver): 5.06E+05
Total Flux Lung ([5]; Table 17-3, mice): 1.20E+04
Total Flux Spleen ([5]; Table 17-3, mice): 3.37E+05
PDI ([1]; Table 17-1): 0.24
Size (nm) ([1]; Table 17-1): 87.3 nm
pKa ([2]; Table 17-1): 6.76
EE (%) ([3]; Table 17-1): 88.7%

CCCCCCCCCCCCN(CCCCCCCCCCCC)CCN1CCNCC1 [Compound 19-2, N-Dodecyl-N-(2-(piperazin-1-yl)ethyl)dodecan-1-amine]
Total Flux 3 hours ([4]; Table 19-2): 1.96E+05
Total Flux 6 hours ([4]; Table 19-2): 3.51E+05
Total Flux 24 hours ([4]; Table 19-2): 2.29E+05
total flux / Luc expression, rank within the named table (in words) [4]: lowest total flux
Total Flux Liver ([5]; Table 19-3, mice, liver): 5.73E+04
Total Flux Lung ([5]; Table 19-3, mice): 2.33E+04
Total Flux Spleen ([5]; Table 19-3, mice): 3.56E+04
total flux in the liver, rank within the named table (in words) ([5]; mice, liver): lowest total flux in the liver
PDI ([1]; Table 19-1): 0.239
Size (nm) ([1]; Table 19-1): 72.0 nm
pKa ([2]; Table 19-1): 7.32
EE (%) ([3]; Table 19-1): 98.8%

CCCCCCCCCCCCN(CCCCCCCCCCCC)CCN1CCN(Cc2ccc(OC)cc2)CC1 [Compound 19-5, N-Dodecyl-N-(2-(4-(4-methoxybenzyl)piperazin-1-yl)ethyl)dodecan-1-amine]
Total Flux 3 hours ([4]; Table 19-2): 2.37E+07
Total Flux 6 hours ([4]; Table 19-2): 1.44E+07
Total Flux 24 hours ([4]; Table 19-2): 2.76E+06
total flux / Luc expression, rank within the named table (in words) [4]: next highest flux
Total Flux Liver ([5]; Table 19-3, mice, liver): 5.99E+06
Total Flux Lung ([5]; Table 19-3, mice): 3.46E+04
Total Flux Spleen ([5]; Table 19-3, mice): 2.10E+05
PDI ([1]; Table 19-1): 0.204
Size (nm) ([1]; Table 19-1): 106.9 nm
pKa ([2]; Table 19-1): 6.32
EE (%) ([3]; Table 19-1): 93.6%

CCCCCCCCCCCCN(CCO)CCN(CCCCCCCCCCCC)CCCCCCCCCCCC [Compound 20-20, 2-((2-(Didodecylamino)ethyl)(dodecyl)amino)ethan-1-ol]
Total Flux 3 hours ([4]; Table 20-2): 4.56E+09
Total Flux 6 hours ([4]; Table 20-2): 3.27E+09
Total Flux 24 hours ([4]; Table 20-2): 3.56E+08
Total Flux Liver ([5]; Table 20-3, mice, liver): 8.92E+08
Total Flux Lung ([5]; Table 20-3, mice): 1.12E+06
Total Flux Spleen ([5]; Table 20-3, mice): 1.39E+07
PDI [1, 8]: 0.159
Size (nm) [1, 8]: 86.8 nm
pKa [2, 8]: 6.41
EE (%) [3, 8]: 95.2%

CCCCC/C=C\C/C=C\CCCCCCCCC1(CCCCCCCC/C=C\C/C=C\CCCCC)CC1CN(C)C (stereo not drawn) [Compound 21-1, 1-(2,2-Di((9Z,12Z)-octadeca-9,12-dien-1-yl)cyclopropyl)-N,N-dimethylmethanamine]
Total Flux 3 hours ([4]; Table 21-2): 3.66E+09
Total Flux 6 hours ([4]; Table 21-2): 4.19E+09
Total Flux 24 hours ([4]; Table 21-2): 4.19E+09
Total Flux Liver ([5]; Table 21-3, mice, liver): 3.62E+08
Total Flux Lung ([5]; Table 21-3, mice): 5.44E+05
Total Flux Spleen ([5]; Table 21-3, mice): 3.27E+07
PDI ([1]; Table 21-1): 0.237
Size (nm) ([1]; Table 21-1): 119.9 nm
particle size, rank within the named table (in words) [1]: largest particles
pKa ([2]; Table 21-1): 6.07
EE (%) ([3]; Table 21-1): 98.4%

CCCCC/C=C\C/C=C\CCCCCCCCC1(CCCCCCCC/C=C\C/C=C\CCCCC)CC(OC(=O)CCCN(C)C)C1 [Compound 21-2, 3,3-Di((9Z,12Z)-octadeca-9,12-dien-1-yl)cyclobutyl 4-(dimethylamino)butanoate]
Total Flux 3 hours ([4]; Table 21-2): 5.99E+08
Total Flux 6 hours ([4]; Table 21-2): 8.09E+08
Total Flux 24 hours ([4]; Table 21-2): 8.09E+08
total flux / Luc expression, rank within the named table (in words) [4]: least expression at 3 and 6 hours
Total Flux Liver ([5]; Table 21-3, mice, liver): 5.50E+07
Total Flux Lung ([5]; Table 21-3, mice): 2.53E+05
Total Flux Spleen ([5]; Table 21-3, mice): 1.56E+07
total flux in organs, rank or organ comparison (in words) ([5]; mice): lowest expression in each organ
PDI ([1]; Table 21-1): 0.200
Size (nm) ([1]; Table 21-1): 83.0 nm
particle size, rank within the named table (in words) [1]: smallest particles
pKa ([2]; Table 21-1): 6.98
EE (%) ([3]; Table 21-1): 99.4%

CCCCC/C=C\C/C=C\CCCCCCCCC1(CCCCCCCC/C=C\C/C=C\CCCCC)CCC(OC(=O)CCCN(C)C)C1 (stereo not drawn) [Compound 21-4, 3,3-Di((9Z,12Z)-octadeca-9,12-dien-1-yl)cyclopentyl 4-(dimethylamino)butanoate]
Total Flux 3 hours ([4]; Table 21-2): 1.15E+09
Total Flux 6 hours ([4]; Table 21-2): 1.26E+09
Total Flux 24 hours ([4]; Table 21-2): 1.26E+09
Total Flux Liver ([5]; Table 21-3, mice, liver): 9.89E+07
Total Flux Lung ([5]; Table 21-3, mice): 2.13E+05
Total Flux Spleen ([5]; Table 21-3, mice): 1.27E+07
total flux in organs, rank or organ comparison (in words) ([5]; mice): lowest expression in each organ
PDI ([1]; Table 21-1): 0.193
Size (nm) ([1]; Table 21-1): 94.9 nm
pKa ([2]; Table 21-1): 7.01
EE (%) ([3]; Table 21-1): 98.8%

CCCCC/C=C\CCCCCN(CCCCCCCCCCCC)CCN1CCN(CCN(CCCCCCCCCCCC)CCN(CCCCCCCCCCCC)CCCCCCCCCCCC)CC1 [Compound 24, (Z)—N^1-(2-(4-(2-(Dodec-6-en-1-yl(dodecyl)amino)ethyl)piperazin-1-yl)ethyl)-N^1,N^2,N^2-tridodecylethane-1,2-diamine]
Size (nm) ([1]; Table 1, * formulated with lipid:DSPC:Chol:PEG-DMG 50:10:38.5:1.5): 110.4 nm
PDI [1, 9]: 0.131
pKa [2, 9]: 6.01
EE (%) [3, 9]: 36.4%
encapsulation efficiency, rank within the named table (in words) [3]: lowest

CCCCCCCC/C=C\CCCCCCCCN(CCCCCCCC/C=C\CCCCCCCC)CCN(CCCCCCCC/C=C\CCCCCCCC)CCN1CCN(CCN(CCCCCCCC/C=C\CCCCCCCC)CCCCCCCC/C=C\CCCCCCCC)CC1 [Formula IV, N^1-(2-(4-(2-(Di((Z)-octadec-9-en-1-yl)amino)ethyl)piperazin-1-yl)ethyl)-N^1,N^2,N^2-tri((Z)-octadec-9-en-1-yl)ethane-1,2-diamine]
Total Flux Liver ([5]; Table 3, mice, liver): 9.15E+08
Total Flux Spleen ([5]; Table 3, mice): 6.15E+08
Size (nm) [1, 6]: 94.2 nm
pKa [2, 7]: 6.25
EE (%) [3, 7]: 97.6%
